The results in this text go back to ChEMBL document CHEMBL1156448, “Identification of an efficacy switch region in the ghrelin receptor responsible for interchange between agonism and inverse agonism” (J Biol Chem, 2007).

Experiment [1] deals with T1, Growth hormone secretagogue receptor type 1 (Homo sapiens, UniProt Q92847). As to the kind of experiment: Displacement of [35S]MK677 from human ghrelin receptor expressed in african green monkey COS7 cells. The experiment is classed as cell-based, COS-7.
T1 sequence (Q92847 whole entry): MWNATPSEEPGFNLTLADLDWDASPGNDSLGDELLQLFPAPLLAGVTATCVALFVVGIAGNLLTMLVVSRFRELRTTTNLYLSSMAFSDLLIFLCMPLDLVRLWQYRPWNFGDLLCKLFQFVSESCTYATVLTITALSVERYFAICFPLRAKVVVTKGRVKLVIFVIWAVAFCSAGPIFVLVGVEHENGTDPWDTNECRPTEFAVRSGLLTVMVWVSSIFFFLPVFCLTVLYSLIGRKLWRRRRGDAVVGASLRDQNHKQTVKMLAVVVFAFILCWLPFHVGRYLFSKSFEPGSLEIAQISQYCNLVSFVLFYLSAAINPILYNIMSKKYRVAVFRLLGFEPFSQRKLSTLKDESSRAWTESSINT
In experiment [2] the target is T1, Growth hormone secretagogue receptor type 1. As to the kind of experiment: Inverse agonist activity at human ghrelin receptor expressed in african green monkey COS7 cells assessed as constitutively stimulated inositol phosphate accumulation. In kind it is functional, cell-based, COS-7.

SMILES strings stand for the structures.

In general, IC50 refers to the concentration needed to halve the response being measured.

Consider `NC(=O)CNC(=O)CNC(=O)[C@@H](Cc1c[nH]c2ccccc12)NC(=O)[C@H](Cc1ccccc1)NC(=O)[C@H](N)Cc1c[nH]c2ccccc12`, for which the values for the IC50 in experiment [1] and in experiment [2] were 540 nM and 159 nM, respectively.

Regarding `CC(C)C[C@H](NC(=O)[C@H](CC(C)C)NC(=O)[C@@H](Cc1c[nH]c2ccccc12)NC(=O)[C@H](Cc1ccccc1)NC(=O)[C@@H](Cc1c[nH]c2ccccc12)NC(=O)[C@@H](CCCNC(=N)N)NC(=O)[C@H]1CCCN1C(=O)[C@@H](N)CC(=O)O)C(N)=O`, the IC50 in experiment [1] was 210 nM; in experiment [2], 112 nM.

On to `CC(C)C[C@H](NC(=O)[C@H](CC(C)C)NC(=O)[C@@H](Cc1c[nH]c2ccccc12)NC(=O)[C@H](Cc1ccccc1)NC(=O)[C@@H](Cc1c[nH]c2ccccc12)NC(=O)[C@@H](N)Cc1cnc[nH]1)C(N)=O`, for which the values for the IC50 in experiment [1] and in experiment [2] were 58 nM and 68 nM, respectively.

As for `CC(C)C[C@H](NC(=O)[C@H](CC(C)C)NC(=O)[C@@H](Cc1c[nH]c2ccccc12)NC(=O)[C@H](Cc1ccccc1)NC(=O)[C@H](N)Cc1c[nH]c2ccccc12)C(N)=O`, the figures for the IC50 in experiment [1] and in experiment [2] were 530 nM and above 1000 nM, respectively.

On to `CC(C)C[C@H](NC(=O)[C@H](CC(C)C)NC(=O)[C@@H](Cc1c[nH]c2ccccc12)NC(=O)[C@H](Cc1ccccc1)NC(=O)[C@@H](Cc1c[nH]c2ccccc12)NC(=O)[C@@H](N)CCC(N)=O)C(N)=O`, for which the IC50 in experiment [1] was 120 nM; in experiment [2] it was 990 nM.
